Experiments:
rat EAE model = assay: Lewis rat model of experimental autoimmune encephalomyelitis (EAE); format: in vivo; conditions: 10 mg/kg/day oral gavage
Experimental: 7- to 10-week female Lewis rats (The Jackson Laboratory, Bar Harbor, Me.) were used since they are susceptible to EAE, and since MS occurs at a 2:1 ratio between females and males respectively. Rats were immunized either at the base of the tail (or in one hind footpad) with myelin antigen myelin basic peptide, MBP 85-99. Peptide antigens were mixed with complete Freund's adjuvant including killed mycobacterium tuberculosis at a doses of 4 mg/ml. 200 micrograms of antigen mixed with the 0.1 ml emulsion of adjuvant were used. The myelin antigens were dissolved in phosphate buffered saline.
Nine rats were used in each of the following groups: EAE control, vehicle control, compound 15 (prevention), compound 15 (pro-treatment), phenyl-N-butyl-nitrone (prevention) and phenyl-N-butyl-nitrone (pro-treatment). For the treatment model, fifteen rats were used in each of three groups: EAE control, vehicle control, compound 15 (treatment). Drugs were administered via oral gavage feeding. Rats were dosed daily after the first dose until recovery from acute disease (typically 20 days after EAE induction). Compound 15 was dosed at 10 mg/kg/day and phenyl-N-butyl-nitrone was dosed at 100 mg/kg/day. In the prevention model, first dose of the drugs was administered 7 days prior to EAE induction. In the pro-treatment model, first dose was administered 4 days after EAE induction. In the treatment model, first dose was administered at the peak of the disease after animals were randomized into equal groups.
All rats were followed daily for clinical signs and weighed every four days. Longer water tubes were used to allow mice to drink when they develop paralysis, and chow was put on the floor of the cage to facilitate nourishment if the rats were paralyzed. Rats were scored as follows: 0, healthy; 1, tail weakness or paralysis; 2, paraparesis (incomplete paralysis of one or two hind limbs or plegia of one hind limb); 3, paraplegia extending to the thorax; 4, forelimb weakness, paralysis with hind limb paraparesis or paraplegia; 5, moribund or dead animal.

CCR7 = target: T1, CCR7 (Homo sapiens, UniProt P32248); assay: Migration of RBL-2H3 cells expressing CCR7; format: cell-based; conditions: RBL-2H3 cells expressing CCR7, 2 hours
T1 construct: Plasmid containing full-length human CCR7 cDNA; host or cells: RBL-2H3 (ATCC CRL-2256), transient transfection
T1 sequence (P32248 25-378): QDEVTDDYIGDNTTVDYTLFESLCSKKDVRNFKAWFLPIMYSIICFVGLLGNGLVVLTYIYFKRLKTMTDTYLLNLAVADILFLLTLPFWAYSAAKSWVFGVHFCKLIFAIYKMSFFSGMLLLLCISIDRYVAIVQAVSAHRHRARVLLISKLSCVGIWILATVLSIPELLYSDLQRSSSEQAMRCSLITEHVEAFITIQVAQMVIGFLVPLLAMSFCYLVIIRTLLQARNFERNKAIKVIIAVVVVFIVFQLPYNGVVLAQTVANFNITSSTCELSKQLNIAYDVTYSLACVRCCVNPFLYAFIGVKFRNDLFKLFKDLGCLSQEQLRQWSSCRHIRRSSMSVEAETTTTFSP
Experimental: (§1) RBL-2H3 cells were obtained from American Type Culture Collection (CRL-2256) and cultured in Minimum essential medium (MEM) with 10% heat-inactivated fetal bovine serum, 100 μg/ml penicillin/streptomycin. cDNA fragments encompassing chemokine receptor coding regions were obtained from cDNAs synthesized from HL-60 cells and/or human peripheral blood mononuclear cells by the polymerase chain reaction. Expression constructs of chemokine receptors were generated by cloning PCR fragments into expression vector pEF6/V5-TOPO (K9610-20, Invitrogen). Plasmid containing full-length human CXCR5 cDNA (human CXCR50TN00, pcDNA3.1+) was purchased from UMR cDNA Resource Center (Rolla, Mo.). Plasmid containing full-length human CCR7 cDNA (human CCR0700000, pcDNA3.1+) was purchased from UMR cDNA Resource Center (Rolla, Mo.). Transient transfections were carried out with Fugene 6 transfection reagent (1814443, Roche Applied Science) according to the manufacturer's instructions. […]
(§2) Following the migration assays, cells that had migrated to the bottom wells were quantitated using CyQuant reagents according to the manufacturer's instructions (Molecular Probes, Eugene, Oreg.). […] The fluorescence intensity (excitation wavelength at 485 nm and emission wavelength at 530 nm) was measured using Safire Spectrometer (Tecan; Research Triangle Park, N.C.).

CXCR4 = CXCR4 (Homo sapiens, UniProt P61073); assay: Migration of RBL-2H3 cells expressing CXCR4; format: cell-based; set-up: cDNA fragments encompassing chemokine receptor coding regions; expressed in transfected cells; conditions: RBL-2H3 cells expressing CXCR4, 2 hours
Chain of CXCR4 (P61073 whole entry, the tested form may be a part): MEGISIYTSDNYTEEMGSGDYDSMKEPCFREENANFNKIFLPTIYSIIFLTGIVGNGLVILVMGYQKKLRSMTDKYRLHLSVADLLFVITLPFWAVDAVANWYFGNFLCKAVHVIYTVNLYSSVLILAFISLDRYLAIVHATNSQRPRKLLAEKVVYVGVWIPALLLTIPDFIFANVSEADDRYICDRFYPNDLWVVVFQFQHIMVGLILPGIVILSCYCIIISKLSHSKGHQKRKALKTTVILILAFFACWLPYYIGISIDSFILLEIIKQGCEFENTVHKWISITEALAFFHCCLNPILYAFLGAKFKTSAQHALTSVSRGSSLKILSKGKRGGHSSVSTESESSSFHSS
Experimental: as §1, §2

| induction of cell migration (CCR7) | induction of cell migration (CXCR4) | SMILES | disease free rats, treatment model (rat EAE model; first dose at the peak of EAE, compared to controls, FIG. 14) | clinical scores, pro-treatment model (rat EAE model; rats, first dose 4 days after EAE induction, compared to control or PBN, FIG. 13) | change of clinical scores on day 15, pro-treatment model (rat EAE model; rats, first dose 4 days after EAE induction, day 15) | clinical scores, prevention model (rat EAE model; rats, first dose 7 days prior to EAE induction, compared to controls and to PBN (100 mg/kg/day), FIG. 12) |
| --- | --- | --- | --- | --- | --- | --- |
| – | – | COCOc1c(C(C)(C)C)cc(/C=[N+](\[O-])C(C)(C)C)cc1C(C)(C)C [Compound 15, α-(4-methoxymethoxy-3,5-di-tert-butyl-phenyl)-N-tert-butylnitrone] | significantly more rats treated with compound 15 were disease free | significantly better clinical scores | improved dramatically | significantly better clinical scores |
| induced migration | induced migration | CCC(C)c1cc(/C=[N+](\[O-])C(C)(C)C)cc(C(C)CC)c1O (stereo not drawn) [Compound 17] | – | – | – | – |

From patent publication US20050215646A1, “Methods for treating multiple sclerosis and pharmaceutical compositions therefor” (Renovis, Inc., priority 2004, published 2005)
